A short description of data set [1]: Mouse grid shock (analgesia). The class given is in vivo. As to conditions: mice, minimal effective dose, in mg/kg. How it is done:
The mouse grid consists of a perspex cage with wire grid bottom and a perspex lid, on which is placed a microphone sensitive to the frequency of a mouse squeak. A stimulator with motordriven potentiometer applies a sequence of square wave impulses of continuously increasing milliamperage to the grid. Frequency of impulses 20 cycles/sec., duration 5 msec. Milliamperage is recorded on a digital amperemeter connected to the stimulator. Activation of the microphone by a mouse-squeak cuts off the current and the final milliamperage appears on the meter.
Five mice are used for each dose level. Each mouse serves as its own control.
Prior to the administration of test substance the animals are placed on the grid one at a time, and the pain threshold is determined by increasing the current intensity until the mouse squeaks. The pain threshold may be read on the milliamperemeter. Fifteen minutes and 30 minutes after administration of test substance the mice are tested again and the pain thresholds recorded.
Analgesic effect is present, when the pain threshold is increased over the pre-dosing value (control value). The results are stated as % increase in pain threshold calculated on the basis of the control value.
The registration can also be done as an on-line procedure. In this case the punching instruction and punching cards will be provided automatically and the results will be registered as a minimal effective dose (MED) determined after van der Waerdens X-test.

Data set [2] in a line: in vivo. Further details: species or system rats. To be noted: for Ratio catalep./Amphet.: catalepsy ED50 / amphetamine antagonism ED50; for ED50: rat, in vivo, po, read-out: Catalep. (catalepsy wire mesh, rat, max, ED50). The procedure:
A vertical wire netting (50 cm×49 cm). The meshes (openings) of the netting are square (1 cm×1 cm). The wire diameter is 2 mm.
The animals are labeled and used in groups of five. The test substance is administered orally (p.o) at 4 dose levels selected from the fixed dose scale.
The animals are placed in the middle of the vertical wire netting 60, 120, 180, 240, 300 and 360 minutes after administration of the test compound. The animals are considered cataleptic when they remain immobile during a period of 15 seconds.
This cataleptic reaction is designated +. If the rats are "atonic" and passively slide down the wire mesh they are considered not cataleptic. If the animals climb up and down the wire mesh they are nor cataleptic.
In both situations the designation--is used.

A further data set deals with amphetamine. Put plainly: Amphetamine antagonism in rats. The class given is in vivo. As to conditions: for ED50: Rattus norvegicus, po, read-out: Amphetamine antag. ED50 p.o. The procedure:
Amphetamine antagonism (ED50 mg/kg i.p.)
(§1) Perspex observation cages without bottom and lid, consisting of 5 sections each measuring 12×25×30 cm.
The test substance is given p.o. in a reasonable dose based on the determined LD50. Two or 24 hours later an intravaneous injection of amphetamine sulphate 13.6 mg/kg (10 mg/kg amphetamine base) is given, after which the rats are placed individually in the cages. The cages are placed on white corrugated paper. Five rats are used for each dose level. Observations are made after 55 minutes and 65 minutes-observation time: 1 minute. The animals are observed for stereotypy (movements of the head, compulsive gnawing). […] If the compound has full antagonistic effect another group of rats is used at a lower dose. […] The result is stated as fractions: 0/5, 1/5, 2/5, 3/5, 4/5 and 5/5, where 0, 1, 2, 3, 4 and 5 indicate the number of rats which have not shown stereotypy at the dose in question. The results are calculated as ED50 in mg/kg.

Another data set has as its system methylphenidate. Put plainly: Methylphenidate antagonism in mice. The class given is in vivo. To be noted: for ED50: Mus musculus, ip. How it is done:
Methylphenidate antagonism (ED50 mg/kg i.p.)
as §1
3×2 mice are used for each dose level. Two or 24 hours after injection of test substance, methylphenidate, 60 mg/kg, is injected s.c. After administration of methylphenidate the mice are placed in the observation cages, 2 in each cage, where they remain for exactly 1 hour. The cages were placed on corrugated paper, the corrugations facing upwards. It is examined whether the mice have been biting the corrugated paper or not. […] If one or more of the control pairs have not been biting, the test has to be repeated on a new set of mice.
The result is stated in fractions: 0/3, 1/3, 2/3 and 3/3 where 0, 1, 2 and 3 are the number of pairs which have not been biting on receipt of the dose in question.

In data set [3] the test system is 3H-DA uptake in striatal synaptosomes. As to the kind of experiment: 3H-DA uptake in striatal synaptosomes in vitro. The class given is biochemical, rats. To be noted: rat striatal synaptosomes, 12.5 nM 3H-DA, 37° C., pH 7.4. How it is done: ^3 H-DA uptake in striatal synaptosomes in vitro
0.32 M sucrose containing 1 mM Nialamide
Millipore filters (HAWPO 2500, 0.45μ)
3,4-dihydroxyphenylethylamine[ethyl-1-^3 H(N)]=^3 H-DA spc. act. app. 15 Ci/mmol, New England Nuclear Thomas Tissue Grinder, clearance 0.004-0.006 inch.
Rats are killed by a blow to their head, exsanguinated and their brains removed. The brain is placed on a precooled glassplate, and the two corpura striata are dissected out and gently homogenized in 40 volumes of ice cold 0.32 M sucrose containing 1 mM of nialamide using a hand homogenizer with teflon pestle. The P2 -fraction (synaptosomal fraction) is obtained by centrifugation (600 g, 10 min., 25000 g, 55 min. 4° C.) and suspended in 40 volumes of a modified Krebs-Ringer-phosphate buffer, pH 7.4. To 200 μl of the synaptosomal fraction on ice are added 3700 μl modified Krebs-Ringer-phosphate buffer--containing test compounds. After a preincubation at 37° C. for 5 min. […] The incubation is terminated by filtering the samples under vacuum through Millipore filters with a wash of 5 ml buffer containing 10 μM of unlabelled DA. After solubilizing the filters in 1 ml of cellosolve the radioactivity is determined by liquid scintillation counting after the addition of 10 ml of Insta-Gel. The unspecific binding of ^3 H-DA is determined by incubating control samples on ice instead of at 37° C.
All experiments are performed in triplicate.
The mean of all control samples and ice samples are calculated. […] The IC50-values are determined as the concentrations, at which the uptake are 50 percent of the uptake in control samples-uptake in ice samples.

Data set [4] in a line: in vivo. As to conditions: iv.
The mark [5] stands for this setting: rats, p.o., strongest effect within first 6 hours.
Setting [6] is: rats, p.o., amphetamine 10 mg/kg base i.v.
The mark [7] stands for this setting: 2 h, read-out: MePh antag. ED50 2 hr i.p., mice, test substance i.p., 2 hr before methylphenidate 60 mg/kg s.c.

pIC50: −log10 of the molar value. Where two headings read alike, the source gives them in different places. Where only a bound is given, the exact number is not on record here.

For the compound `CN1CCN(C2CC(c3ccc(F)cc3)c3ccc(F)cc32)CC1` (single isomer, unassigned; (-)) [Lu 17-152, (-) 1-Methyl-4-(3-(4'-fluorophenyl)-6-fluoro-1-indanyl)piperazine], in data set [1], the “MED Grid Shock” value worked out at 5. The “Catalep. (catalepsy wire mesh, rat, max, ED50)” value in the data set “in vivo [2]” (setting [5]) is more than 320 mg/kg. The “Amphetamine antag. ED50 p.o.” value in the data set on amphetamine (setting [6]) is more than 80 mg/kg. Moreover, the “MePh antag. ED50 2 hr i.p.” value in the data set with methylphenidate (mice, test substance i.p., 2 hr before methylphenidate 60 mg/kg s.c., 120 min) is 17 mg/kg. The pIC50 in data set [3] was 7.06.
Take `OCCCN1CCN([C@@H]2C[C@@H](c3ccc(Cl)c(Cl)c3)c3ccccc32)CC1` (relative stereo) [Lu 18-081]: the pIC50 in data set [3] is 7.82.
For the compound `CN1CCN([C@@H]2C[C@@H](c3ccccc3)c3ccc(F)cc32)CC1` (relative stereo) [Lu 14-067], in data set [1], the “MED Grid Shock” value was 5. Moreover, the ED50 with methylphenidate (setting [7]) was more than 40 mg/kg. Besides, in data set [3], the pIC50 was 7.17.
Consider `OCCN1CCN([C@@H]2C[C@@H](c3ccc(F)cc3)c3ccc(Cl)cc32)CC1` (relative stereo) [Lu 14-068], for which the “MED Grid Shock” value in data set [1] was found to be 0.31. For the same compound, the “Ratio catalep./Amphet.” value in the data set “in vivo [2]” is reported as 0.9. The ED50 in “in vivo [2]” (setting [5]) amounted to 1.5 mg/kg; in the data set on amphetamine (setting [6]), 1.6 mg/kg; in the data set on methylphenidate (setting [7]), 1.3 mg/kg. In addition, the pIC50 in data set [3] is 7.08. Besides, the LD50 in the data set “in vivo [4]” was 94 mg/kg.
As for `OCCCCN1CCN([C@@H]2C[C@@H](c3ccc(F)cc3)c3ccc(F)cc32)CC1` (relative stereo) [Lu 18-080], the “MED Grid Shock” value in data set [1] was less than 1.3. Further, the “Ratio catalep./Amphet.” value in the data set “in vivo [2]” is on record as 6.2. The figures for the ED50 in “in vivo [2]” (setting [5]), in the data set with amphetamine (setting [6]) and with methylphenidate (setting [7]) were 21.8 mg/kg, 3.5 mg/kg and 2.9 mg/kg, respectively. The compound also showed a pIC50 in data set [3] of 7.60. In the data set “in vivo [4]”, the LD50 amounted to 80 mg/kg.
For the compound `OCC(O)CN1CCN(C2CC(c3ccc(Cl)c(Cl)c3)c3ccccc32)CC1` (single isomer, unassigned) [Lu 18-129], the pIC50 in data set [3] is 7.85.
With `OCCCCN1CCN([C@@H]2C[C@@H](c3ccc(Cl)c(Cl)c3)c3ccccc32)CC1` (relative stereo) [Lu 18-121], the pIC50 in data set [3] is 7.96.
On to `OCCN1CCN([C@@H]2C[C@@H](c3ccc(Cl)c(Cl)c3)c3ccccc32)CC1` (relative stereo) [Lu 17-133], for which, in data set [3], the pIC50 is 8.52.
For `OCC(O)CN1CCN(C2CC(c3ccc(F)cc3)c3ccc(F)cc32)CC1` (single isomer, unassigned) [Lu 17-079], the pIC50 in data set [3] was 7.92.
The compound `OCCCCN1CCN([C@@H]2C[C@H](c3ccc(Cl)c(Cl)c3)c3ccccc32)CC1` (relative stereo) [Lu 18-120] showed a pIC50 in data set [3] of 8.30.
`OCCN1CCN([C@@H]2C[C@H](c3ccc(Cl)c(Cl)c3)c3ccccc32)CC1` (relative stereo) [Lu 17-132] had a pIC50 in data set [3] of 7.92.
Turning to `OCCCN1CCN([C@@H]2C[C@H](c3ccc(F)cc3)c3ccc(F)cc32)CC1` (relative stereo) [Lu 14-048], the pIC50 in data set [3] was 7.34.
`CN1CCN([C@@H]2C[C@@H](c3ccc(Cl)c(Cl)c3)c3ccccc32)CC1` (relative stereo) [Lu 17-110] had a pIC50 in data set [3] of 7.96.
`OCC(O)CN1CCN(C2CC(c3ccc(Cl)c(Cl)c3)c3ccccc32)CC1` (single isomer, unassigned) [Lu 18-128]: the pIC50 in data set [3] is 7.92.
For `CN(C)CCCN1c2ccccc2Sc2ccc(Cl)cc21` [chlorpromazine, reference compound], in data set [1], the “MED Grid Shock” value turned out to be 5. Besides, the “Ratio catalep./Amphet.” value in the data set “in vivo [2]” is 1.19. In addition, the ED50 worked out at 25 mg/kg in “in vivo [2]” (setting [5]); 21 mg/kg in the data set with amphetamine; 5.6 mg/kg with methylphenidate (read-out: MePh antag. ED50 2 hr i.p., mice, test substance i.p., 2 hr before methylphenidate 60 mg/kg s.c.). In “in vivo [4]”, the LD50 amounted to 56.5 mg/kg.
In data set [3], `CN1CCN([C@@H]2C[C@H](c3ccc(Cl)c(Cl)c3)c3ccccc32)CC1` (relative stereo) [Lu 17-109] showed a pIC50 of 8.40.
Regarding `CN1CCN(C2CC(c3ccc(F)cc3)c3ccc(S(C)(=O)=O)cc32)CC1` (stereo not shown) [Lu 18-040], the “MED Grid Shock” value in data set [1] is on record as more than 20. For the same compound, the “Ratio catalep./Amphet.” value in the data set “in vivo [2]” came out at 0.8. The ED50 in the data set “in vivo [2]” (setting [5]) came to 10 mg/kg; with amphetamine (setting [6]), 12 mg/kg; with methylphenidate (setting [7]) it was 8.3 mg/kg. For the same compound, in “in vivo [4]”, the LD50 amounted to 130 mg/kg.
`CC(O)CN1CCN(C2CC(c3ccc(F)cc3)c3ccc(F)cc32)CC1` (stereo not shown) [Lu 17-144, 1-(2-hydroxy-1-propyl)-4-(3-(4'-fluorophenyl)-6-fluoro-1-indanyl)piperazine] gave a pIC50 in data set [3] of 7.74.
On to `CN1CCN([C@@H]2C[C@H](c3ccc(F)cc3)c3ccc(Cl)cc32)CC1` (relative stereo) [Lu 14-069], for which, in data set [1], the “MED Grid Shock” value worked out at 5. Besides, the values for the ED50 in the data set “in vivo [2]” (setting [5]), in the data set on amphetamine (setting [6]) and with methylphenidate (setting [7]) were more than 40 mg/kg, more than 20 mg/kg and 5.7 mg/kg, respectively. In the data set “in vivo [4]”, the LD50 came out at 65 mg/kg.
Turning to `OCCCN1CCN([C@@H]2C[C@H](c3ccc(Cl)c(Cl)c3)c3ccccc32)CC1` (relative stereo) [Lu 18-082], the pIC50 in data set [3] is 8.22.
Regarding `O[C@H]1CC[C@H](CN2CCN(C3CC(c4ccc(F)cc4)c4ccc(F)cc43)CC2)CC1` (relative stereo) [Lu 17-059], in data set [1], the “MED Grid Shock” value worked out at 5. Moreover, the “Ratio catalep./Amphet.” value in the data set “in vivo [2]” is reported as more than 1.4. The results for the ED50 in the data set “in vivo [2]” (setting [5]), in the data set with amphetamine (setting [6]) and with methylphenidate (setting [7]) were more than 40 mg/kg, 28 mg/kg and 4.3 mg/kg, respectively. In “in vivo [4]”, this compound gave an LD50 of 94 mg/kg.
For the compound `Cc1ccc2c(c1)C(N1CCN(C(C)C)CC1)CC2c1ccc(F)cc1` (stereo not shown) [Lu 17-069], in data set [1], the “MED Grid Shock” value was 0.63. The “Ratio catalep./Amphet.” value in “in vivo [2]” is listed as 1.2. The ED50 in “in vivo [2]” (setting [5]) is 6.7 mg/kg; with amphetamine (setting [6]) it was 5.6 mg/kg; in the data set with methylphenidate (setting [7]) it was 0.8 mg/kg. In addition, the LD50 in “in vivo [4]” is 56 mg/kg.

The term pIC50 denotes the negative decadic logarithm of the IC50, by convention in mol/L. Read a high pIC50 as a low IC50. For orientation: LD50 means the dose expected to kill half of the subjects tested. A higher LD50 goes with a less toxic substance.
